The values below come from US9963472B2, “Stable pantetheine derivatives for the treatment of pantothenate kinase associated neurodegeneration (PKAN) and methods for the synthesis of such compounds” (ACIES BIO D.O.O., priority 2013, dated 2018).

The subject of one series is protein acetylation. The series is described as follows: Rescue of protein acetylation defect in PKAN models. It counts as cell-based. From the text: For a variety of diseases HDAC inhibitors are being used and specifically the valproic acid is currently used in diseases ranging from cancer, to epilepsy, to neurodegeneration. The disadvantage is that valproic acid has severe side effects.

The test system of series [1] is dPANK/fbl down-regulated Drosophila-S2 cells. The series is described as follows: Rescue of cell survival in dPANK/fbl RNAi Drosophila S2 cells (PKAN cell model). It counts as cell-based. Particulars: 100 μM; for rescue of cell count defect (cell survival): triplicate. From the text:
The down-regulation of […] ortholog in Drosophila) using RNAi approach in Drosophila S2 cells is an established in-vitro PKAN disease model (Rana, A. et al., PNAS, 2010, 107, 6988; Siudja et al., EMBO Mol med. 2011, 3, 755; Siudeja et al., PLoS One 2012, 7, e443145). Down-regulation of dPANK/fbl by RNAi, causes a decrease in the survival of cells. […] Materials and Methods: […]

For series [2], the system named is HEK293 cells treated with HOPAN. The series is described as follows: Rescue of HEK293 cells in HOPAN induced PKAN model. The series is classed as cell-based, human. To be noted: 100 μM, HOPAN 0.5 mM, 4 days, HEK293, vitamin B5 deficient DMEM. As for the experimental part: Similar to Drosophila-S2 cells, the PKAN disease model can also be induced using HOPAN in mammalian cell lines. Rescue efficiency of (S)-acetyl-4′-phosphopantetheine and 4′-phosphopantetheine was studied in HOPAN induced PKAN model system, namely in mammalian HEK293 cells.
Materials and Methods: HEK293 cells were cultured in vitamin B5 deficient DMEM (Thermo Scientific) supplemented with 10% dialysed FCS (Thermo Scientific) with and without HOPAN (0.5 mM) and (S)-acetyl-4′-phosphopantetheine and 4′-phosphopantetheine for 4 days. 100 μM of (S)-acetyl-4′-phosphopantetheine and 4′-phosphopantetheine was compared for its rescue efficiency.

For another series, the system named is Human HEK293 cells. The series is described as follows: Cellular toxicity (drop in cell counts) in HEK293 cells. It counts as cell-based. To be noted: increasing concentrations.
The subject of series [3] is Drosophila-S2 cells treated with HOPAN. The series is described as follows: Rescue in HOPAN assay, Drosophila S2 cells. The series is classed as cell-based. To be noted: 100 μM, HOPAN 0.5 mM, two days. The method, then:
In an additional experiment, Drosophila-S2 cells treated with the chemical inhibitor HOPAN (hopanthenate, CAS 17097-76-6, IUPAC: calcium 4-[[(2R)-2,4-dihydroxy-3,3-dimethylbutanoyl]amino]butanoate). Cells treated with HOPAN also serve as a model for PKAN. Cells treated with HOPAN also show a reduction in cell viability.
Materials and Methods: Drosophila Schneider's S2 cells were cultured and subjected to HOPAN (0.5 mM) treatment with and without (S)-acetyl-4′-phosphopantetheine and 4′-phosphopantetheine for two days (Siudeja. K. et al., EMBO Mol Med. 2011, 3, 755). 100 μM of (S)-acetyl-4′-phosphopantetheine and 4′-phosphopantetheine was compared for its rescue efficiency.

`CC(/C=C/C(=O)NO)=C\[C@@H](C)C(=O)c1ccc(N(C)C)cc1` [Trichostatin A]: the “rescue of protein acetylation defect” value with protein acetylation is listed as “rescue the protein acetylation defect”.

Consider `CCCC(CCC)C(=O)O` [valproic acid], for which the “rescue of protein acetylation defect” value in the series on protein acetylation was “rescue the protein acetylation defect”.

For the compound `CC(C)(COP(=O)(O)O)[C@@H](O)C(=O)NCCC(=O)NCCS` [4′-phosphopantetheine], the “rescue of cell count defect (cell survival)” value in series [1] was “rescued the cell count defect significantly”. Besides, the “reduction of HOPAN induced cell count defect” value in series [2] is recorded as “significantly reduced the HOPAN induced cell count defect”. In the series with Human HEK293 cells, the “toxicity (drop in cell counts)” value is reported as “less toxic compared to pantethine”.

In the case of (S)-acetyl-4′-phosphopantetheine, in series [1], the “rescue potential compared to the other compounds” value is “superior rescue potential as compared to pantethine and 4′-phosphopantetheine”; the “rescue of cell count defect (cell survival)” value is “rescued the cell count defect significantly”. For the same compound, the “rescue of HOPAN induced cell count defect” value in series [3] was “significantly rescued”. Moreover, the “reduction of HOPAN induced cell count defect” value in series [2] is recorded as “significantly reduced the HOPAN induced cell count defect”. Also, the “toxicity (drop in cell counts)” value in the series on Human HEK293 cells is “less toxic compared to pantethine”.
